Test results from patent US20250099474A1 (priority 2022, published 2025).

Test system: SARS-CoV-2
Experiment: Phase 2/3 study, Phase 2a Part: SARS-CoV-2 virus titer
Type: in vivo, human
Details: for Change from baseline in SARS-CoV-2 virus titer compared to placebo group: mITT, significance level 0.05
Experimental: The primary endpoint of Phase 2a Part was the change from baseline in SARS-CoV-2 virus titer at each time point in common among mild/moderate and asymptomatic SARS-CoV-2-infected patients, and the antiviral effect of the active drug was confirmed.
The administration of the active drug is repeated oral administration once a day for 5 days. The 375/125 mg group received 375 mg on Day 1 as a loading dose and 125 mg on Days 2 to 5 as a maintenance dose. The 750/250 mg group received 750 mg on Day 1 as a loading dose and 250 mg on Days 2 to 5 as a maintenance dose.
The primary efficacy endpoint of Phase 2a Part was the change from baseline in SARS-CoV-2 virus titer at each time point in common among mild/moderate and asymptomatic SARS-CoV-2-infected patients. It was defined as an absolute change from baseline in observed value of SARS-CoV-2 virus titer at each time point.
For each population of the mild/moderate SARS-CoV-2-infected patients, the asymptomatic SARS-CoV-2-infected patients, and the merged population thereof, summary statistics of the change from baseline in SARS-CoV-2 virus titer at each time point were calculated for the mITT population. Furthermore, a van Elteren test was applied to a combined population of mild/moderate and asymptomatic SARS-CoV-2-infected patients. Pairwise comparisons were made between each active drug dose group and the placebo group for SARS-CoV-2 virus titer at each time point at a two-sided significance level of 5%. The population of the mild/moderate SARS-CoV-2-infected patients and the population of the asymptomatic SARS-CoV-2-infected patients were used as strata in the van Elteren test.
In addition, when the virus titer was less than the lower detection limit (0.8 log10 (TCID50/mL)), the value of the virus titer was handled as 0.8 log10 (TCID50/mL). […] In the RT-PCR measurement results and the virus titer measurement results that were available by the time point of Jan.

With `Cn1cnc(Cn2c(=O)[nH]/c(=N\c3cc4cn(C)nc4cc3Cl)n(Cc3cc(F)c(F)cc3F)c2=O)n1` [(6E)-6-[(6-chloro-2-methyl-2H-indazol-5-yl)imino]-3-[(1-methyl-1H-1,2,4-triazol-3-yl)methyl]-1-[(2,4,5-trifluorophenyl)methyl]-1,3,5-triazinane-2,4-dione] the “Decrease of proportion of patients with a positive virus titer of 0.8 or more, with respect to placebo group” value (“Decrease of proportion of patients” below) (Day 4, 375/125 mg group) was 63%, the “Decrease of proportion of patients” value (Day 4, 750/250 mg group) was 80% and the “Decrease of proportion of patients” value (Day 6, 375/125 mg group) was 100%. For the same molecule, the “Decrease of proportion of patients” value (Day 6, 750/250 mg group) was 54%, the “Change from baseline in SARS-CoV-2 virus titer compared to placebo group” value (375/125 mg group, Visit 3 (Day 4)) was “statistically significantly decreased” and the “Change from baseline in SARS-CoV-2 virus titer compared to placebo group” value (750/250 mg group, Visit 2 (Day 2) and Visit 3 (Day 4)) was “statistically significantly decreased”. The “SARS-CoV-2 virus titer compared to placebo group” value (results available by Jan. 17, 2022, 375/125 mg group, all time points after Visit 3 (Day 4)) was “tendency for the virus titer to decrease” and the “SARS-CoV-2 virus titer compared to placebo group” value (results available by Jan. 17, 2022, 750/250 mg group, all time points after Visit 2 (Day 2)) was “tendency for the virus titer to decrease”.
